We go through 6 molecules from US10562897B2, “Substituted 3,4-dihydro-2H-pyrido[1,2-a]pyrazine-1,6-diones as gamma secretase modulators” (Janssen Pharmaceutica NV, priority 2014, dated 2020).

For orientation: melting point means the temperature of the solid-liquid transition.

For one data set, the system named is Aβ42. Put plainly: In vivo efficacy: brain level of soluble Aβ42, non-transgenic rodents, single oral dose 30 mg/kg, 4 h, MSD electrochemiluminescence, untreated control = 100. On the set-up: species or system mouse. The following applies: Mus musculus, read-out: Aβ42 (% vs Ctrl) _Mean. An excerpt: (§1) To determine whether acute administration of an Aβ42 lowering agent would reduce Aβ42 levels in vivo, non-transgenic rodents, e.g. mice or rats were used. Animals treated with the Aβ42 lowering agent were examined and compared to those untreated or treated with vehicle and brain levels of soluble Aβ42, Aβ40, Aβ38, and Aβ37 were quantitated by Meso Scale Discovery's (MSD) electrochemiluminescence detection technology. Treatment periods varied from hours (h) to days and were adjusted based on the results of the Aβ42 lowering once a time course of onset of effect could be established.
(§2) A typical protocol for measuring Aβ42 lowering in vivo is shown but it is only one of many variations that could be used to optimize the levels of detectable Aβ. For example, Aβ42 lowering compounds were formulated in 20% of Captisol® (a sulfobutyl ether of β-cyclodextrin) in water or 20% hydroxypropyl β cyclodextrin. The Aβ42 lowering agents were administered as a single oral dose or by any acceptable route of administration to overnight fasted animals. After 4 h, the animals were sacrificed and Aβ42 levels were analysed.
(§3) Blood was collected by decapitation and exsanguinations in EDTA-treated collection tubes. Blood was centrifuged at 1900 g for 10 minutes (min) at 4° C. and the plasma recovered and flash frozen for later analysis. The brain was removed from the cranium and hindbrain. The cerebellum was removed and the left and right hemisphere were separated. The left hemisphere was stored at −18° C. for quantitative analysis of test compound levels. The right hemisphere was rinsed with phosphate-buffered saline (PBS) buffer and immediately frozen on dry ice and stored at −80° C. until homogenization for biochemical assays.
(§4) Mouse brains from non-transgenic animals were resuspended in 8 volumes of 0.4% DEA (diethylamine)/50 mM NaCl containing protease inhibitors (Roche-11873580001 or 04693159001) per gram of tissue, e.g. for 0.158 g brain, add 1.264 ml of 0.4% DEA. All samples were homogenized in the FastPrep-24 system (MP Biomedicals) using lysing matrix D (MPBio #6913-100) at 6 m/s for 20 seconds. Homogenates were centrifuged at 20800×g for 5 min and supernatants collected. Supernatants were centrifuged at 221.300×g for 50 min. The resulting high speed supernatants were then transferred to fresh eppendorf tubes. Nine parts of supernatant were neutralized with 1 part 0.5 M Tris-HCl pH 6.8 and used to quantify Aβ.
(§5) To quantify the amount of Aβ42, Aβ40, Aβ38, and Aβ37 in the soluble fraction of the brain homogenates, simultaneous specific detection of Aβ42, Aβ40, Aβ38, and Aβ37 was performed using MSD's electro-chemiluminescence multiplex detection technology. In this assay purified monoclonal antibodies specific for Abeta37 (JRD/Aβ37/3), Abeta38 (J&JPRD/Aβ38/5), Abeta40 (JRF/cAβ40/28), and Abeta42 (JRF/cAβ42/26) were coated on MSD 4-plex plates. Briefly, the standards (a dilution of synthetic Aβ42, Aβ40, Aβ38, and Aβ37) were prepared in 1.5 ml Eppendorf tube in Ultraculture, with final concentrations ranging from 10000 to 0.3 pg/m. The samples and standards were co-incubated with Sulfo-tag labelled JRF/rAß/2 antibody to the N-terminus of Aβ as detector antibody. 50 μl of conjugate/sample or conjugate/standards mixtures were then added to the antibody-coated plate. The plate was allowed to incubate overnight at 4° C. in order to allow formation of the antibody-amyloid complex. Following this incubation and subsequent wash steps the assay was finished by adding read buffer according to the manufacturer's instructions (Meso Scale Discovery, Gaitherburg, Md.).
(§6) The SULFO-TAG emits light upon electrochemical stimulation initiated at the electrode. MSD Sector instrument SI6000 was used for signal read-out.
In this model a Aß42 lowering compared to untreated animals would be advantageous, in particular a Aß42 lowering with at least 10%, more in particular a Aß42 lowering with at least 20%. […]

The test system of the next data set is Aβ40. Put plainly: In vivo efficacy: brain level of soluble Aβ40, non-transgenic rodents, single oral dose 30 mg/kg, 4 h, MSD electrochemiluminescence, untreated control = 100. On the set-up: species or system mouse. As to conditions: Mus musculus, read-out: Aβ40 (% vs Ctrl) _Mean.
Text: as §1, §2, §3, §4, §5
The SULFO-TAG emits light upon electrochemical stimulation initiated at the electrode. MSD Sector instrument SI6000 was used for signal read-out. […]

A further data set relates to Aβ38. Put plainly: In vivo efficacy: brain level of soluble Aβ38, non-transgenic rodents, single oral dose 30 mg/kg, 4 h, MSD electrochemiluminescence, untreated control = 100. On the set-up: species or system mouse. As to conditions: Mus musculus, read-out: Aβ38 (% vs Ctrl) _Mean.
Text: To determine whether acute administration of an Aβ38 increasing agents would increase Aβ38 levels in vivo, non-transgenic rodents, e.g. mice or rats were used. Animals treated with the Aβ38 increasing agents were examined and compared to those untreated or treated with vehicle and brain levels of soluble Aβ42, Aβ40, Aβ38, and Aβ37 were quantitated by MSD electrochemiluminescence detection technology.
Treatment periods varied from hours (h) to days and were adjusted based on the results of the Aβ38 increase once a time course of onset of effect could be established.
A typical protocol for measuring Aβ38 increase in vivo is shown but it is only one of many variations that could be used to optimize the levels of detectable Aβ. For example, Aβ38 increasing agents were formulated in 20% of Captisol® (a sulfobutyl ether of β-cyclodextrin) in water or 20% hydroxypropyl β cyclodextrin. The Aβ38 increasing agents were administered as a single oral dose or by any acceptable route of administration to overnight fasted animals. After 4 h, the animals were sacrificed and Aβ38 levels were analysed.
as §3, §4
as §5, with “[…].” for “pg/m.”
as §6
In this model a Aß38 increase compared to untreated animals would be advantageous, in particular a Aß38 increase with at least 10%, more in particular a Aß38 increase with at least 20%. […]

Read-outs that look alike come from different tables or passages of the source.

In the case of `Cc1cn(-c2ccc3n(c2=O)CCN(Cc2coc4ccc(C(F)(F)F)cc24)C3=O)cn1` [Compound 64], the melting point came to 211 °C. For the same molecule, the response vs control in vivo at 30 mg/kg in the data set with Aβ42 (sc, 30 mpk sc) was found to be 108%. The response vs control in vivo at 30 mg/kg in the data set on Aβ40 (sc, 30 mpk sc (footnote *)) was determined as 132%. In the data set with Aβ38 (sc, 30 mpk sc), the response vs control in vivo at 30 mg/kg came to 155%.

For `Cc1cn(-c2ccc3n(c2=O)C[C@@H](C)N(Cc2coc4cc(C(F)(F)F)ccc24)C3=O)cn1` [Compound 72], the melting point turned out to be 215 °C. For the same molecule, the response vs control in vivo at 30 mg/kg in the data set on Aβ42 (po, dose 30 mg/kg oral dosing) was found to be 64%. In addition, the response vs control in vivo at 30 mg/kg in the data set on Aβ40 (po, dose 30 mg/kg oral dosing) was 88%. For the same molecule, the response vs control in vivo at 30 mg/kg in the data set with Aβ38 (po, dose 30 mg/kg oral dosing) was determined as 130%.

The molecule `Cc1cn(-c2ccc3n(c2=O)C[C@@H](C)N(Cc2coc4ccc(C(F)(F)F)cc24)C3=O)cn1` [Compound 73] showed a melting point of 187 °C. The response vs control in vivo at 30 mg/kg in the data set on Aβ42 (sc, 30 mpk sc) is 97%. For the same molecule, in the data set on Aβ40 (sc, 30 mpk sc (footnote *)), the response vs control in vivo at 30 mg/kg is 114%. Moreover, the response vs control in vivo at 30 mg/kg with Aβ38 (sc, 30 mpk sc) came to 110%.

For `Cc1cn(-c2ccc3n(c2=O)C[C@@H](C)N(Cc2coc4c(Cl)cc(Cl)cc24)C3=O)cn1` [Compound 74], the melting point was determined as 202 °C. In the data set with Aβ42 (po, 10 mpk po), the response vs control in vivo at 10 mg/kg amounted to 83%. The response vs control in vivo at 10 mg/kg in the data set with Aβ40 (po, 10 mpk po) came out at 100%. The response vs control in vivo at 10 mg/kg with Aβ38 (po, 10 mpk po) came to 144%.

Take `Cc1cn(-c2ccc3n(c2=O)C[C@@H](C)N(Cc2coc4cc(F)c(C(F)(F)F)cc24)C3=O)cn1` [Compound 84]: the melting point is 222 °C. Besides, the response vs control in vivo at 30 mg/kg in the data set with Aβ42 (sc, 30 mpk sc) was 25%. Also, the response vs control in vivo at 30 mg/kg in the data set on Aβ40 (sc, 30 mpk sc (footnote *)) stood at 21%. Moreover, the response vs control in vivo at 30 mg/kg in the data set with Aβ38 (sc, 30 mpk sc) turned out to be 237%.

In turn, `Cc1cn(-c2ccc3n(c2=O)C[C@@H](C)N(Cc2coc4cc(C(F)(F)F)c(F)cc24)C3=O)cn1` [Compound 85] gave a melting point of 226 °C. Further, the response vs control in vivo at 30 mg/kg in the data set on Aβ42 (sc, 30 mpk sc) worked out at 51%. Further, the response vs control in vivo at 30 mg/kg in the data set on Aβ40 (sc, 30 mpk sc (footnote *)) came out at 69%. Further, the response vs control in vivo at 30 mg/kg in the data set on Aβ38 (sc, 30 mpk sc) came to 194%.
